# According to patent US6008225A, “Derivatives of antibiotic GE2270 factors C2a, D2 and E” (BioSearch Italia, S.p.A., priority 1996, dated 1999):
# Columns and labels:
# Staph. aureus Smith = test: MIC by microbroth dilution, Staph. aureus Smith; type: cell-based, Staphylococcus aureus; conditions: Staph. aureus Smith (code 819); 0.01% BSA; inocula about 10^4 (1-4), about 5×10^5 cfu/ml (5, 6); 18-24 h
# Staph. aureus Tour = test: MIC by microbroth dilution, Staph. aureus Tour; type: cell-based, Staphylococcus aureus; conditions: Staph. aureus Tour (code 165), 0.01% BSA, read 18-24 h
# [1] = system: Proteus vulgaris X19H ATCC881; test: MIC by microbroth dilution, Proteus vulgaris; type: cell-based; conditions: Proteus vulgaris X19H ATCC881 (code 79); 0.01% BSA; inocula about 10^4 (1-4), about 5×10^5 cfu/ml (5, 6); 18-24 h
# [2] = system: Pseudomonas aeruginosa ATCC10145; test: MIC by microbroth dilution, Pseudomonas aeruginosa; type: cell-based; conditions: Pseudomonas aeruginosa ATCC10145 (code 4); 0.01% BSA; inocula about 10^4 (1-4), about 5×10^5 cfu/ml (5, 6); 18-24 h
# [3] = system: Escherichia coli SKF 12140; test: MIC by microbroth dilution, Escherichia coli; type: cell-based; conditions: Escherichia coli SKF 12140 (code 47); 0.01% BSA; inocula about 10^4 (1-4), about 5×10^5 cfu/ml (5, 6); 18-24 h
# [4] = system: Bacteroides fragilis ATCC 25285; test: MIC by microbroth dilution, Bacteroides fragilis; type: cell-based; conditions: Bacteroides fragilis ATCC 25285 (code 1011); anaerobe, 48 h; 0.01% BSA; inocula about 10^5 (1-4), about 5×10^5 cfu/ml (5, 6)
# [5] = system: Haemophilus influenzae type b ATCC19418; test: MIC by microbroth dilution, Haemophilus influenzae; type: cell-based; conditions: Haemophilus influenzae type b ATCC19418 (code 970); 5% CO2, 48 h; 0.01% BSA; inocula about 10^4 (1-4), about 5×10^5 cfu/ml (5, 6)
# [6] = system: Clostridium perfringens ISS30543; type: cell-based; conditions: Clostridium perfringens ISS30543 (code 290); anaerobe, 48 h; 0.01% BSA; inocula about 10^5 (1-4), about 5×10^5 cfu/ml (5, 6)
# [7] = system: Staph. haemolyticus clin. is.; test: MIC by microbroth dilution, Staph. haemolyticus; type: cell-based, Staphylococcus haemolyticus; conditions: Staph. haemolyticus clin. is. (code 602); 0.01% BSA; inocula about 10^4 (1-4), about 5×10^5 cfu/ml (5, 6); 18-24 h
# [8] = system: Propionibacterium acnes ATCC6919; test: MIC by microbroth dilution, Propionibacterium acnes; type: cell-based; conditions: Propionibacterium acnes ATCC6919 (code 1014); anaerobe, 48 h; 0.01% BSA; inocula about 10^5 (1-4), about 5×10^5 cfu/ml (5, 6)
# [9] = system: Neisseria gonorrhoeae ISM 68/126; test: MIC by microbroth dilution, Neisseria gonorrhoeae; type: cell-based; conditions: Neisseria gonorrhoeae ISM 68/126 (code 997); 5% CO2, 48 h; 0.01% BSA; inocula about 10^4 (1-4), about 5×10^5 cfu/ml (5, 6)
# [10] = system: Enterococcus faecalis ATCC 6919; test: MIC by microbroth dilution, Enterococcus faecalis; type: cell-based; conditions: Enterococcus faecalis ATCC 6919 (code 149); 0.01% BSA; inocula about 10^4 (1-4), about 5×10^5 cfu/ml (5, 6); 18-24 h
# Strep. pyogenes C203 = test: MIC by microbroth dilution, Strep. pyogenes; type: cell-based, Streptococcus pyogenes; conditions: Strep. pyogenes C203 (code 49); Todd Hewitt broth; 0.01% BSA; inocula about 10^4 (1-4), about 5×10^5 cfu/ml (5, 6); 18-24 h
# [11] = system: Klebsiella pneumoniae ISM; test: MIC by microbroth dilution, Klebsiella pneumoniae; type: cell-based; conditions: Klebsiella pneumoniae ISM (code 142); 0.01% BSA; inocula about 10^4 (1-4), about 5×10^5 cfu/ml (6); 18-24 h
# Strep. pneumoniae UC41 = test: MIC by microbroth dilution, Strep. pneumoniae; type: cell-based, Streptococcus pneumoniae; conditions: Strep. pneumoniae UC41 (code 44); Todd Hewitt broth; 0.01% BSA; inocula about 10^4 (1-4), about 5×10^5 cfu/ml (5, 6); 18-24 h
# [12] = system: Staph. epidermidis ATCC 12228; test: MIC by microbroth dilution, Staph. epidermidis; type: cell-based, Staphylococcus epidermidis; conditions: Staph. epidermidis ATCC 12228 (code 147); 0.01% BSA; inocula about 10^4 (1-4), about 5×10^5 cfu/ml (5, 6); 18-24 h
# [13] = inocula about 10^4 cfu/ml (compounds 1-4), about 5×10^5 cfu/ml (5, 6)
SMILES,MIC of the compounds (Staph. aureus Smith),MIC of the compounds (Staph. aureus Tour; 10^6 cfu/ml),MIC of the compounds (Staph. aureus Tour; 30% b.s.),MIC of the compounds (Staph. aureus Tour; [13]),MIC of the compounds [1],MIC of the compounds [2],MIC of the compounds [3],MIC of the compounds [4],MIC of the compounds [5],MIC of the compounds [6],MIC of the compounds [7],MIC of the compounds [8],MIC of the compounds [9],MIC of the compounds [10],MIC of the compounds (Strep. pyogenes C203),MIC of the compounds [11],MIC of the compounds (Strep. pneumoniae UC41),MIC of the compounds [12]
CCN(CC)Cc1sc2nc1C(=O)NCC(=O)NC(C(O)c1ccccc1)c1nc(cs1)-c1nc(cs1)-c1nc(-c3nc(C4=NC(C(=O)N5CCCC5C(N)=O)CO4)cs3)ccc1-c1nc(cs1)C(=O)NC(CC(=O)NC)c1nc(c(C)s1)C(=O)NC2C(C)C (stereo not drawn) [Compound 1],0.13 µg/mL,0.25 µg/mL,0.5 µg/mL,0.13 µg/mL,> 128 µg/mL,> 128 µg/mL,> 128 µg/mL,64 µg/mL,> 128 µg/mL,0.13 µg/mL,0.13 µg/mL,0.03 µg/mL,> 128 µg/mL,0.06 µg/mL,4 µg/mL,> 128 µg/mL,1 µg/mL,
CNC(=O)CC1NC(=O)c2csc(n2)-c2ccc(-c3nc(C4=NC(C(=O)N5CCCC5C(N)=O)CO4)cs3)nc2-c2csc(n2)-c2csc(n2)C(C(O)c2ccccc2)NC(=O)CNC(=O)c2nc(sc2CN(C)C)C(C(C)C)NC(=O)c2nc1sc2C (stereo not drawn) [Compound 2],0.13 µg/mL,0.13 µg/mL,0.13 µg/mL,0.13 µg/mL,> 128 µg/mL,> 128 µg/mL,> 128 µg/mL,128 µg/mL,8 µg/mL,0.06 µg/mL,0.25 µg/mL,0.06 µg/mL,4 µg/mL,0.06 µg/mL,0.5 µg/mL,> 128 µg/mL,0.13 µg/mL,0.13 µg/mL
CNC(=O)C[C@@H]1NC(=O)c2csc(n2)-c2ccc(-c3nc(C4=N[C@H](C(=O)N5CCC[C@H]5C(N)=O)CO4)cs3)nc2-c2csc(n2)-c2csc(n2)C(C(O)c2ccccc2)NC(=O)CNC(=O)c2nc(sc2CN(C)CCN(C)C)[C@H](C(C)C)NC(=O)c2nc1sc2C (stereo partly drawn) [Compound 3],1 µg/mL,4 µg/mL,1 µg/mL,1 µg/mL,> 128 µg/mL,> 128 µg/mL,> 128 µg/mL,> 128 µg/mL,> 128 µg/mL,4 µg/mL,8 µg/mL,0.5 µg/mL,> 128 µg/mL,1 µg/mL,2 µg/mL,> 128 µg/mL,1 µg/mL,8 µg/mL
CCSCc1sc2nc1C(=O)NCC(=O)NC(C(O)c1ccccc1)c1nc(cs1)-c1nc(cs1)-c1nc(-c3nc(C4=N[C@H](C(=O)N5CCC[C@H]5C(N)=O)CO4)cs3)ccc1-c1nc(cs1)C(=O)N[C@@H](CC(=O)NC)c1nc(c(C)s1)C(=O)N[C@H]2C(C)C (stereo partly drawn) [Compound 4],0.25 µg/mL,,,0.13 µg/mL,> 128 µg/mL,> 128 µg/mL,> 128 µg/mL,> 128 µg/mL,> 128 µg/mL,0.016 µg/mL,8 µg/mL,0.004 µg/mL,> 128 µg/mL,0.06 µg/mL,64 µg/mL,> 128 µg/mL,0.5 µg/mL,4 µg/mL
CCN(CC)CCNC(=O)[C@@H]1CCCN1C(=O)[C@@H]1COC(c2csc(-c3ccc4c(n3)-c3csc(n3)-c3csc(n3)C(C(O)c3ccccc3)NC(=O)CNC(=O)c3nc(sc3CO)[C@H](C(C)C)NC(=O)c3nc(sc3C)[C@H](CC(=O)NC)NC(=O)c3csc-4n3)n2)=N1 (stereo partly drawn) [Compound 5],0.13 µg/mL,0.13 µg/mL,0.25 µg/mL,0.06 µg/mL,> 128 µg/mL,> 128 µg/mL,> 128 µg/mL,32 µg/mL,8 µg/mL,0.06 µg/mL,0.13 µg/mL,0.03 µg/mL,32 µg/mL,0.06 µg/mL,0.13 µg/mL,,0.13 µg/mL,0.13 µg/mL
CCN(CC)CCNC(=O)[C@@H]1CCCN1C(=O)[C@@H]1COC(c2csc(-c3ccc4c(n3)-c3csc(n3)-c3csc(n3)C(C(O)c3ccccc3)NC(=O)CNC(=O)c3nc(sc3CN(C)C)[C@H](C(C)C)NC(=O)c3nc(sc3C)[C@H](CC(=O)NC)NC(=O)c3csc-4n3)n2)=N1 (stereo partly drawn) [Compound 6],0.13 µg/mL,,,0.13 µg/mL,> 128 µg/mL,> 128 µg/mL,> 128 µg/mL,64 µg/mL,> 128 µg/mL,0.06 µg/mL,0.5 µg/mL,16 µg/mL,16 µg/mL,0.13 µg/mL,0.13 µg/mL,> 128 µg/mL,0.13 µg/mL,0.5 µg/mL
